PMC8427247, “Actinobacillus utilizes a binding protein–dependent ABC transporter to acquire the active form of vitamin B6” (The Journal of Biological Chemistry, 2021)

Legend:
P5PA WT [1] = target: T1, P5PA WT (Actinobacillus pleuropneumoniae, UniProt B0BUC2); test: Microscale thermophoresis (MST) with fluorescently labeled P5PA; format: binding
Method: (§1) P5PA was fluorescently labeled using RED-NHS Second Generation Protein Labeling Kit (NanoTemper). Briefly, 90 μl of purified apo-P5PA at 10 μM was mixed with 10 μl of the provided labeling dye at 300 μM. The mixture was incubated in dark for 30 min and loaded to a special gravity column that is pre-equilibrated in PBS with 0.05% Tween-20 (PBST). After washing the column with 550 μl of PBST, another 450 μl of PBST was added to elute the fluorescently labeled apo-P5PA. The yield of the labeled P5PA was determined by 280-nm readings made on a Nanodrop.
(§2) A target compound was successively diluted in PBST by a dilution factor of two to make a total of 16 different concentrations. Then, 10 μl of the labeled P5PA was added to an equal volume of the diluted compounds and loaded to standard capillaries (NanoTemper). The Binding Affinity Mode of Monolith NT.115 (NanoTemper) was used to detect fluorescence changes and deduct Kd.
(§3) Supplementary Table2. The concentrations of protein and compounds used in MST
(§4) Labeled Protein Concentration Compound Highest Working
(§5) P5PA 25 Pyridoxal-5’-phosphate (P5P) 1.40 µM
(§6) P5PA 25 Pyridoxamine (PM) 448 mM

P5PA WT [2] = target: T1, P5PA WT; test: Isothermal titration calorimetry (ITC), ligand titrated into P5PA; format: binding
Method: The purification method described in the P5PA protein purification section was modified as follows in order to purify apo-P5PA for ITC. Before elution, P5PAwas denatured in the gravity column. To denature P5PA, 6 M guanidine hydrochloride (GdHCl) was applied to the column, after which a refolding step was performed by stepwise addition of 4.5 M GdHCl, 3 M GdHCl, and finally 1.5 M GdHCl. The protein was then washed with lysis buffer and eluted with elution buffer ([15]). The subsequent purification steps were the same as previously described.
ITC was performed using an auto-iTC200 (Microcal) at the Structure and Biophysical Core Facility within the Peter Gilgan Centre for Research & Learning (Hospital for Sick Children, Toronto, Canada). Runs consisted of titrating ligand loaded into the injection syringe against purified protein, which was loaded into the sample cell. About 45 μM of purified P5PA was stored in ITC buffer (20 mM Tris, pH 8, and 100 mM NaCl) at 4 °C. The same buffer was used to make solutions of 300 μM G6P, 300 μM P5P, and 45 μM bovine serum albumin. P5PA, bovine serum albumin, and ITC buffer alone were titrated with P5P or G6P. The parameter setting was 2 μl/injection for a total of 20 injections. Data applied to calculate binding constants were referenced against runs performed with ligand alone to control for the heat of ligand solvation.

AfuA H205A = tested on: AfuA H205A; design: method as in PMID 26295949; conditions: AfuA H205A mutant; cited from earlier work
AfuA D206A = tested on: AfuA D206A; design: method as in PMID 26295949; conditions: AfuA D206A mutant; cited from earlier work
AfuA E229A = tested on: AfuA E229A; design: method as in PMID 26295949; conditions: AfuA E229A mutant; cited from earlier work
P5PA H203A = target: T2, P5PA H203A (Actinobacillus pleuropneumoniae, UniProt B0BUC2, H229A); test: Microscale thermophoresis (MST) with fluorescently labeled P5PA mutant; format: binding
T2 sequence (B0BUC2 26-343 H229A): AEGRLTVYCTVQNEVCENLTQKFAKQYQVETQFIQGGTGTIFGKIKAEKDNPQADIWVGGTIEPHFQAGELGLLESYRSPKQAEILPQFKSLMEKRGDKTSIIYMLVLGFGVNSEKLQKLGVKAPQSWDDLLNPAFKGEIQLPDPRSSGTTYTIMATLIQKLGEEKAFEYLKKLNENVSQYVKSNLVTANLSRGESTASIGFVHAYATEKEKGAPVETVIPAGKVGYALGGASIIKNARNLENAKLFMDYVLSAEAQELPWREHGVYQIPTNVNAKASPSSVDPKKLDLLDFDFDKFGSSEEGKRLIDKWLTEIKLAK
Method: as §1, §2, §3, §4, §5, §6

P5PA T149A = target: T3, P5PA T149A (Actinobacillus pleuropneumoniae, UniProt B0BUC2, T175A); test: as above; format: binding
T3 sequence (B0BUC2 26-343 T175A): T2 sequence (B0BUC2 26-343 H229A)
Method: as §1, §2, §3, §4, §5, §6

P5PA Y103A = target: T4, P5PA Y103A (Actinobacillus pleuropneumoniae, UniProt B0BUC2, Y129A); test: as above; format: binding
T4 sequence (B0BUC2 26-343 Y129A): T2 sequence (B0BUC2 26-343 H229A)
Method: as §1, §2, §3, §4, §5, §6

[3] = tested on: E. coli K-12 ΔpdxB mutant; test: E. coli growth assay in M9 minimal media supplemented with P5P; format: cell-based, Escherichia coli
Method: The ΔpdxB mutant of E. coli K-12 strain was obtained from the Keio collection ([45]). The ΔpdxB mutant was transformed with either pSC101, pSC101-P5PAB, or pSC101-P5PAB + AfuC and grown in LB broth overnight at 37 °C with shaking. The starters were then washed twice with M9 medium and inoculated at an absorbance of 0.05 at 600 nm into M9 medium supplemented with P5P. The P5P concentrations used were 0, 1, 2.5, and 5 μM. Growth assays were performed in both culture tubes and 100-well microplates ([15], [17]). For cell growth in culture tubes, 5 ml of P5P-supplemented M9 was used, and readings of absorbance at 600 nm were measured after a 23-h incubation at 37 °C with shaking. For cell growth in 100-well microplates, 200 μl of P5P-supplemented M9 was applied to each well, and microplates were incubated in a Bioscreen C microplate reader (Growth Curves USA) at 37 °C with shaking. Absorbance values at 600 nm were measured every 15 min for a time course of 40 h.

[4] = tested on: WT strain of E. coli K-12; test: as above; format: cell-based, Escherichia coli; conditions: P5P 0 to 10 μM, 24 h incubation
[5] = tested on: A. pleuropneumoniae pdxS and pdxT disrupted mutants; design: method as in PMID 28448619; conditions: supplementation with 10 μM P5P; cited from earlier work
[6] = MST, P5PA WT, n = 3, read-out: Kd

Compound: Cc1ncc(CO)c(C=O)c1O [PL, pyridoxal]
- Kd (P5PA WT [1]; [6]): 13000 ± 4000 µM

Compound: O=C[C@H](O)[C@@H](O)[C@H](O)[C@H](O)COP(=O)(O)O [G6P, glucose-6-phosphate]
- binding activity (P5PA WT [2]; ITC, 300 μM ligand into 45 μM P5PA): no significant binding activity
- released heat for each titration (P5PA WT [2]; ITC, 300 μM ligand into 45 μM P5PA, insufficient to calculate a dissociation constant): approximately 3 kJ/mol
- Kd (P5PA WT [1]; [6]): 11000 ± 3000 µM
- binding affinity (AfuA H205A): undetectable
- binding affinity (AfuA D206A): undetectable
- binding affinity (AfuA E229A): undetectable

Compound: Cc1ncc(CO)c(CN)c1O [PM, pyridoxamine]
- Kd (P5PA WT [1]; [6]): 8000 ± 4000 µM

Compound: Cc1ncc(COP(=O)(O)O)c(C=O)c1O [P5P, pyridoxal-5′-phosphate]
- Kd (P5PA WT [2]): 0.036 ± 0.007 µM
- Kd (P5PA WT [1]): 0.028 ± 0.015 µM
- Kd (P5PA H203A): 10 ± 4 µM
- Kd (P5PA T149A): 1.3 ± 0.3 µM
- Kd (P5PA Y103A): 17 ± 8 µM
- growth defects of the four transformants and the ΔpdxB mutant ([3]; M9, P5P at 5 μM): partially restored
- growth of ΔpdxB mutant expressing pSC101-P5PAB + AfuC ([3]; M9, P5P at 1 and 2.5 μM, p < 0.01, two-tailed t test): rescued
- growth of ΔpdxB mutant ([3]; M9 minimal media, P5P 0 to 10 μM, 24 h incubation): severe growth deficiency in all conditions except P5P concentrations of 5 and 10 μM
- growth of WT strain [4]: not affected by the concentration of supplemented P5P
- growth of pdxS/pdxT mutants [5]: rescued growth
